Data on two molecules can be found in ChEMBL document CHEMBL1148522 (J Med Chem, 2006).

The target of the test is Proto-oncogene tyrosine-protein kinase Src (Homo sapiens, UniProt P12931). As to the kind of experiment: Inhibition of SRC using polyE4Y as substrate.

Some results are limits rather than exact numbers.

Proto-oncogene tyrosine-protein kinase Src, sequence (P12931 2-536 limits assumed): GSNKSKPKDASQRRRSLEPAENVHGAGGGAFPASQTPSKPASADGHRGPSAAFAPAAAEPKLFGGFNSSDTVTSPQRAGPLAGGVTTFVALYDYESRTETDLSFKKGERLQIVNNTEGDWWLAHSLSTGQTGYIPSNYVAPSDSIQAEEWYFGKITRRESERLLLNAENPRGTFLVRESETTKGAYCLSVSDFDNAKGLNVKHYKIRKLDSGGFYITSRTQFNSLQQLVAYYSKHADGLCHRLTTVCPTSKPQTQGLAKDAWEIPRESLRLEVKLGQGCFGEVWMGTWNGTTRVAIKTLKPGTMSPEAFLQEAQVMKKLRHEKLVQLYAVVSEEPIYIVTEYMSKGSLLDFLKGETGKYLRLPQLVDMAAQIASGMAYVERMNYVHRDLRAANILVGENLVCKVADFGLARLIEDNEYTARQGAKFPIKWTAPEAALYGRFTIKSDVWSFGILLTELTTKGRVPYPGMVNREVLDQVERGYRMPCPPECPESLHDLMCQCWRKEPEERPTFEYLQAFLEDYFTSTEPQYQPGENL

For the molecule `CC[C@H](C)[C@H](NC(=O)[C@H](CS)NC(C)=O)C(=O)N[C@@H](Cc1ccc(O)cc1)C(=O)N[C@@H](CCCCN)C(=O)N[C@@H](Cc1ccc(O)cc1)C(=O)N[C@@H](Cc1ccc(N)cc1)C(=O)O`, the half-inhibitory concentration (IC50) was > 700 µM. For `CC[C@H](C)[C@H](NC(=O)[C@H](CS)NC(C)=O)C(=O)N[C@@H](Cc1ccc(O)cc1)C(=O)N[C@@H](CCCCN)C(=O)N[C@@H](Cc1ccc(NS(C)(=O)=O)cc1)C(=O)N[C@@H](Cc1ccc(O)cc1)C(=O)O`, the half-maximal inhibitory concentration (IC50) was > 700 µM.
